Reference: patent US20240199585A1, “SOLID FORMS OF (3R)-N-[2-CYANO-4-FLUORO-3-(3-METHYL-4-OXO-QUINAZOLIN-6-YL)OXY-PHENYL]-3-FLUORO-PYRROLIDINE-1-SULFONAMIDE” (Hoffmann-La Roche Inc., priority 2021, published 2024)

What was measured:
[1] = cited from earlier work
[2] = High humidity storage experiments; assay type: physicochemical
[3] = Moisture sorption/desorption (dynamic vapour sorption, DVS); assay type: physicochemical; settings: for Masschange (DVS): from 0%-90% RH; for Hygroscopicity: increase in mass from 0%-RH to 90%-RH
Description: Moisture sorption/desorption data was collected on a DVS Advantage, a DVS Adventure, or a DVS Intrinsic (SMS Surface Measurements Systems) moisture balance system. The sorption/desorption isotherms were measured stepwise in a range from 0%-RH to 90%-RH at typically 25° C. A weight change of typically <0.001%/min was chosen as criterion to switch to the next level of relative humidity (with a maximum equilibration time of typically 24 hours, if the weight change criterion was not met). The data were corrected for the initial moisture content of the samples by taking the weight after drying of the samples at 0%-RH as zero point.
The hygroscopicity of a given substance was characterized (by close analogy with the European Pharmacopoeia) by the increase in mass when the relative humidity was raised from 0%-RH to 90%-RH: […]

| Compound | brain permeability [1] | Solid form stability in high humidity storage [2] | Masschange (DVS) [3] [%] | Hygroscopicity [3] | Solid form change during the DVS cycle ([3]; sorption/desorption cycle 0%-90% RH) |
| --- | --- | --- | --- | --- | --- |
| CC(C)(C)c1nc(-c2cccc(NS(=O)(=O)c3c(F)cccc3F)c2F)c(-c2ccnc(N)n2)s1 [Dabrafenib] | very poor | – | – | – | – |
| CCCS(=O)(=O)Nc1ccc(F)c(C(=O)c2c[nH]c3ncc(-c4ccc(Cl)cc4)cc23)c1F [Vemurafenib] | very poor | – | – | – | – |
| Cn1cnc2ccc(Oc3c(F)ccc(NS(=O)(=O)N4CC[C@@H](F)C4)c3C#N)cc2c1=O [amorphous form, (3R)-N-[2-cyano-4-fluoro-3-(3-methyl-4-oxo-quinazolin-6-yl)oxy-phenyl]-3-fluoro-pyrrolidine-1-sulfonamide] | – | Recrystallization to Form A | ~3.8 | hygroscopic (weight increase 2.0% ≤ Dm < 15.0%) | – |
| COC(=O)N[C@@H](C)CNc1nccc(-c2cn(C(C)C)nc2-c2cc(Cl)cc(NS(C)(=O)=O)c2F)n1 [Encorafenib] | very poor | – | – | – | – |
| Cn1cnc2ccc(Oc3c(F)ccc(NS(=O)(=O)N4CC[C@@H](F)C4)c3C#N)cc2c1=O [polymorphic form A, (3R)-N-[2-cyano-4-fluoro-3-(3-methyl-4-oxo-quinazolin-6-yl)oxy-phenyl]-3-fluoro-pyrrolidine-1-sulfonamide] | – | – | < 0.2 | not hygroscopic | no solid form change |
